Laboratory results reported in ChEMBL document CHEMBL1127106, “Synthesis and cytotoxic activity of () octadecylphosphodithionyl-1-myo-inositol” (1993).
Values joined by “and” are separate entries in the source; they are usually repeats but may differ in a detail not shown here. Equal entries are not always repeated.

Columns and labels:
Assay type in all cases: functional, Homo sapiens
K562 [1] = assay: Cytotoxic activity on K-562 erythroleukemia cell line suspension in 5% foetal calf serum (FCS) at 10e-6 M concentration after 24 hr
K562 [2] = assay: Cytotoxic activity on K-562 erythroleukemia cell line suspension in 5% foetal calf serum (FCS) at 10e-5 M concentration after 2 hr
K562 [3] = assay: Cytotoxic activity on K-562 erythroleukemia cell line suspension in 5% foetal calf serum (FCS) at 4*10e-6 M concentration after 2 hr
K562 [4] = assay: Cytotoxic activity on K-562 erythroleukemia cell line suspension in 5% foetal calf serum (FCS) at 4*10e-4 M concentration after 24 hr
K562 [5] = assay: Cytotoxic activity on K-562 erythroleukemia cell line suspension in 5% foetal calf serum (FCS) at 4*10e-5 M concentration after 1 hr
K562 [6] = assay: Cytotoxic activity on K-562 erythroleukemia cell line suspension in 5% foetal calf serum (FCS) at 4*10e-5 M concentration after 2 hr
K562 [7] = assay: Cytotoxic activity on K-562 erythroleukemia cell line suspension in 5% foetal calf serum (FCS) at 10e-5 M concentration after 24 hr
K562 [8] = assay: Cytotoxic activity on K-562 erythroleukemia cell line suspension in 5% foetal calf serum (FCS) at 4*10e-6 M concentration after 1 hr
K562 [9] = assay: Cytotoxic activity on K-562 erythroleukemia cell line suspension in 5% foetal calf serum (FCS) at 10e-3 M concentration after 1 hr
K562 [10] = assay: Cytotoxic activity on K-562 erythroleukemia cell line suspension in 5% foetal calf serum (FCS) at 10e-3 M concentration after 2 hr
K562 [11] = assay: Cytotoxic activity on K-562 erythroleukemia cell line suspension in 5% foetal calf serum (FCS) at 4*10e-4 M concentration after 1 hr
K562 [12] = assay: Cytotoxic activity on K-562 erythroleukemia cell line suspension in 5% foetal calf serum (FCS) at 4*10e-6 M concentration after 24 hr
K562 [13] = assay: Cytotoxic activity on K-562 erythroleukemia cell line suspension in 5% foetal calf serum (FCS) at 10e-5 M concentration after 1 hr
K562 [14] = assay: Cytotoxic activity on K-562 erythroleukemia cell line suspension in 5% foetal calf serum (FCS) at 10e-4 M concentration after 24 hr
K562 [15] = assay: Cytotoxic activity on K-562 erythroleukemia cell line suspension in 5% foetal calf serum (FCS) at 10e-4 M concentration after 1 hr
K562 [16] = assay: Cytotoxic activity on K-562 erythroleukemia cell line suspension in 5% foetal calf serum (FCS) at 10e-6 M concentration after 1 hr
K562 [17] = assay: Cytotoxic activity on K-562 erythroleukemia cell line suspension in 5% foetal calf serum (FCS) at 10e-6 M concentration after 2 hr
K562 [18] = assay: Cytotoxic activity on K-562 erythroleukemia cell line suspension in 5% foetal calf serum (FCS) at 10e-4 M concentration after 2 hr
K562 [19] = assay: Cytotoxic activity on K-562 erythroleukemia cell line suspension in 5% foetal calf serum (FCS) at 4*10e-5 M concentration after 24 hr
K562 [20] = assay: Cytotoxic activity on K-562 erythroleukemia cell line suspension in 5% foetal calf serum (FCS) at 10e-3 M concentration after 24 hr

For CCCCCCCCCCCCCCCCCCSP(O)(=S)O[C@@H]1[C@@H](O)[C@H](O)[C@@H](O)[C@H](O)[C@@H]1O (stereo not given in full), the Dead cells (K562 [1]) was 27.2%, the Dead cells (K562 [2]) was 16.6% and the Dead cells (K562 [3]) was 16.8% and 45.9%. It also gave a Dead cells (K562 [4]) of 71.1%, a Dead cells (K562 [5]) of 15.5% and a Dead cells (K562 [6]) of 17%. The Dead cells (K562 [7]) was 23.3%, the Dead cells (K562 [8]) was 13.3% and the Dead cells (K562 [9]) was 48.9%. For the same compound, the Dead cells (K562 [10]) was 52.52%, the Dead cells (K562 [11]) was 48.2% and the Dead cells (K562 [12]) was 22.5%. For the same compound, the Dead cells (K562 [13]) was 13.3%, the Dead cells (K562 [14]) was 40% and the Dead cells (K562 [15]) was 18.4%. For the same compound, the Dead cells (K562 [16]) was 14%, the Dead cells (K562 [17]) was 18.2% and the Dead cells (K562 [18]) was 22.7%. The Dead cells (K562 [19]) was 24.4% and the Dead cells (K562 [20]) was 96.2%.
